Data: patent US12662489B2 (Sitryx Therapeutics Limited, priority 2023, dated 2026)

Legend:
human CD4+ T cells = test: Human CD4+ T-cell proliferation assay (CFSE, CD3/28 beads); details: read-out: Proliferation IC50
[1] = biological target: T1, MTHFD2 recombinant human enzyme (Homo sapiens, UniProt P13995); test: MTHFD2 inhibition assay (NAD(P)H-Glo luminescence); details: for MTHFD1/MTHFD2 IC50 ratio: selectivity of MTHFD2 inhibition over MTHFD1, band
T1 sequence (P13995 36-350): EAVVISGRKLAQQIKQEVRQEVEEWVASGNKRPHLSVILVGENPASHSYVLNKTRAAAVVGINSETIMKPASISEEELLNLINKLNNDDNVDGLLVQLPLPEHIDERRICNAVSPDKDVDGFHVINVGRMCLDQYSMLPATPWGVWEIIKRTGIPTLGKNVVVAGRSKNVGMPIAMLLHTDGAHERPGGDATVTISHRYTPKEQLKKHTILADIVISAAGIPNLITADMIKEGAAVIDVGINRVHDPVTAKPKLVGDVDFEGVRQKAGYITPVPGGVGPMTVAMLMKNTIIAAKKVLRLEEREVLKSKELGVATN

[2] = biological target: T2, MTHFD1 recombinant human enzyme (Homo sapiens, UniProt P11586); test: MTHFD1 inhibition assay (NAD(P)H-Glo luminescence); details: MTHFD1 IC50, recombinant human enzyme 200 nM, NADP, band
T2 sequence (P11586 2-291 limits assumed): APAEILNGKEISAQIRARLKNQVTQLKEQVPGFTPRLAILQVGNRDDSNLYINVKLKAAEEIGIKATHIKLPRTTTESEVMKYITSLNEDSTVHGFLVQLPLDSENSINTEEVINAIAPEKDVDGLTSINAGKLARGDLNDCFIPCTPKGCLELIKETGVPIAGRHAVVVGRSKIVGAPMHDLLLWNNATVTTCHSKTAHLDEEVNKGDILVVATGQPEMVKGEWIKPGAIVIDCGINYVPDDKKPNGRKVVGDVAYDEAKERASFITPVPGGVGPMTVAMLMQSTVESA

SMILES | IC50 (human CD4+ T cells) [nM] | IC50 [1] [nM] | MTHFD1/MTHFD2 IC50 ratio [1] | IC50 [2] [nM]
COC[C@H]1CN(c2cc(C)c3c4c(c(=O)oc3c2C)CN(C(=O)c2cc(N(C)C)c(C(=O)NS(=O)(=O)N3C5CCC3CC5)cc2Cl)CC4)CCN1C [Example 193, (R)-N-((7-azabicyclo[2.2.1]heptan-7-yl)sulfonyl)-5-chloro-2-(dimethylamino)-4-(8-(3-(methoxymethyl)-4-methylpiperazin-1-yl)-7,10-dimethyl-5-oxo-1,3,4,5-tetrahydro-2H-chromeno[3,4-c]pyridine-3-carbonyl)benzamide] | 30 to 100 | 10 to 100 | J (>30) | 1000 to 5000
COC[C@H]1CN(c2cc(C)c3c4c(c(=O)oc3c2C)CN(C(=O)c2ccc(C(=O)NS(=O)(=O)N3CCCC3)cc2)CC4)CCN1C [Example 195, (R)-4-(8-(3-(methoxymethyl)-4-methylpiperazin-1-yl)-7,10-dimethyl-5-oxo-1,3,4,5-tetrahydro-2H-chromeno[3,4-c]pyridine-3-carbonyl)-N-(pyrrolidin-1-ylsulfonyl)benzamide] | 1000 to 5000 | 10 to 100 | J (>30) | 1000 to 5000
COC[C@H]1CN(c2cc(C)c3c4c(c(=O)oc3c2C)CN(C(=O)c2cc(N)c(C(=O)NS(=O)(=O)N3CCCC3)cc2F)CC4)CCN1C [Example 196, (R)-2-amino-5-fluoro-4-(8-(3-(methoxymethyl)-4-methylpiperazin-1-yl)-7,10-dimethyl-5-oxo-1,3,4,5-tetrahydro-2H-chromeno[3,4-c]pyridine-3-carbonyl)-N-(pyrrolidin-1-ylsulfonyl)benzamide] | > 5000 | 10 to 100 | J (>30) | 1000 to 5000
COC[C@H]1CN(c2cc(C)c3c4c(c(=O)oc3c2C)CN(C(=O)c2ccc(C(=O)NS(=O)(=O)N(C)C3CCCC3)cc2F)CC4)CCN1C [Example 199, (R)-N-(N-cyclopentyl-N-methylsulfamoyl)-3-fluoro-4-(8-(3-(methoxymethyl)-4-methylpiperazin-1-yl)-7,10-dimethyl-5-oxo-1,3,4,5-tetrahydro-2H-chromeno[3,4-c]pyridine-3-carbonyl)benzamide] | 100 to 1000 | 100 to 1000 | H (>9.0 to 30) | 1000 to 5000
CNc1cc(C(=O)N2CCc3c(c(=O)oc4c(C)c(N5CCN(C)[C@@H](COC)C5)cc(C)c34)C2)c(F)cc1C(=O)NS(=O)(=O)N1CCCC1 [Example 201, (R)-5-fluoro-4-(8-(3-(methoxymethyl)-4-methylpiperazin-1-yl)-7,10-dimethyl-5-oxo-1,3,4,5-tetrahydro-2H-chromeno[3,4-c]pyridine-3-carbonyl)-2-(methylamino)-N-(pyrrolidin-1-ylsulfonyl)benzamide] | 100 to 1000 | 10 to 100 | J (>30) | 1000 to 5000
CCOc1cc(C(=O)N2CCc3c(c(=O)oc4c(C)c(N5CCN(C)[C@@H](COC)C5)cc(C)c34)C2)c(F)cc1C(=O)NS(=O)(=O)N1CCCC1 [Example 202, (R)-2-ethoxy-5-fluoro-4-(8-(3-(methoxymethyl)-4-methylpiperazin-1-yl)-7,10-dimethyl-5-oxo-1,3,4,5-tetrahydro-2H-chromeno[3,4-c]pyridine-3-carbonyl)-N-(pyrrolidin-1-ylsulfonyl)benzamide] | 10 to 30 | 10 to 100 | H (>9.0 to 30) | 100 to 1000
COC[C@H]1CN(c2cc(C)c3c4c(c(=O)oc3c2C)CN(C(=O)c2ccc(C(=O)NS(=O)(=O)N3C[C@H]5CCC[C@H]5C3)cc2)CC4)CCN1C [Example 210, N-(((3aR,6a S)-hexahydrocyclopenta[c]pyrrol-2(1H)-yl)sulfonyl)-4-(8-((R)-3-(methoxymethyl)-4-methylpiperazin-1-yl)-7,10-dimethyl-5-oxo-1,3,4,5-tetrahydro-2H-chromeno[3,4-c]pyridine-3-carbonyl)benzamide] | > 5000 | 10 to 100 | J (>30) | 1000 to 5000
COC[C@H]1CN(c2cc(C)c3c4c(c(=O)oc3c2C)CN(C(=O)c2ccc(C(=O)NS(=O)(=O)N3CC5CCCCC5C3)cc2)CC4)CCN1C (stereo partly drawn) [Example 211, 4-(8-((R)-3-(methoxymethyl)-4-methylpiperazin-1-yl)-7,10-dimethyl-5-oxo-1,3,4,5-tetrahydro-2H-chromeno[3,4-c]pyridine-3-carbonyl)-N-((octahydro-2H-isoindol-2-yl)sulfonyl)benzamide] | 1000 to 5000 | 10 to 100 | H (>9.0 to 30) | 1000 to 5000
CCOc1cc(C(=O)N2CCc3c(c(=O)oc4c(C)c(N5CCN(C)[C@@H](COC)C5)cc(C)c34)C2)c(F)cc1C(=O)NS(=O)(=O)N(C1CC1)C1CC1 [Example 216, (R)-N-(N,N-dicyclopropylsulfamoyl)-2-ethoxy-5-fluoro-4-(8-(3-(methoxymethyl)-4-methylpiperazin-1-yl)-7,10-dimethyl-5-oxo-1,3,4,5-tetrahydro-2H-chromeno[3,4-c]pyridine-3-carbonyl)benzamide] | 10 to 30 | 10 to 100 | G (^ 3 to 9.0) | 100 to 1000
CCOc1cc(C(=O)N2CCc3c(c(=O)oc4c(C)c(N5CCN(C)[C@@H](COC)C5)cc(C)c34)C2)c(F)cc1C(=O)NS(=O)(=O)N1CCC(C)(C)C1 [Example 217, (R)-N-((3,3-dimethylpyrrolidin-1-yl)sulfonyl)-2-ethoxy-5-fluoro-4-(8-(3-(methoxymethyl)-4-methylpiperazin-1-yl)-7,10-dimethyl-5-oxo-1,3,4,5-tetrahydro-2H-chromeno[3,4-c]pyridine-3-carbonyl)benzamide] | 10 to 30 | 10 to 100 | G (^ 3 to 9.0) | 100 to 1000
CCOc1cc(C(=O)N2CCc3c(c(=O)oc4c(C)c(N5CCN(C)[C@@H](COC)C5)cc(C)c34)C2)c(F)cc1C(=O)NS(=O)(=O)N1C2CCC1CC2 [Example 218, (R)-N-((7-azabicyclo[2.2.1]heptan-7-yl)sulfonyl)-2-ethoxy-5-fluoro-4-(8-(3-(methoxymethyl)-4-methylpiperazin-1-yl)-7,10-dimethyl-5-oxo-1,3,4,5-tetrahydro-2H-chromeno[3,4-c]pyridine-3-carbonyl)benzamide] | 30 to 100 | 10 to 100 | H (>9.0 to 30) | 100 to 1000
CCOc1cc(C(=O)N2CCc3c(c(=O)oc4c(C)c(N5CCN(C)[C@@H](COC)C5)cc(C)c34)C2)c(F)cc1C(=O)NS(=O)(=O)N1CC2CC2C1 (stereo partly drawn) [Example 219, N-((3-azabicyclo[3.1.0]hexan-3-yl)sulfonyl)-2-ethoxy-5-fluoro-4-(8-((R)-3-(methoxymethyl)-4-methylpiperazin-1-yl)-7,10-dimethyl-5-oxo-1,3,4,5-tetrahydro-2H-chromeno[3,4-c]pyridine-3-carbonyl)benzamide] | 10 to 30 | 10 to 100 | G (^ 3 to 9.0) | 10 to 100
CCOc1cc(C(=O)N2CCc3c(c(=O)oc4c(C)c(N5CCN(C)[C@@H](COC)C5)cc(C)c34)C2)c(F)cc1C(=O)NS(=O)(=O)N1C2CCC1COC2 [Example 221, N-((3-oxa-8-azabicyclo[3.2.1]octan-8-yl)sulfonyl)-2-ethoxy-5-fluoro-4-(8-((R)-3-(methoxymethyl)-4-methylpiperazin-1-yl)-7,10-dimethyl-5-oxo-1,3,4,5-tetrahydro-2H-chromeno[3,4-c]pyridine-3-carbonyl)benzamide] | 30 to 100 | 10 to 100 | H (>9.0 to 30) | 100 to 1000
CCOc1c(C(=O)N2CCc3c(c(=O)oc4c(C)c(N5CCN(C)[C@@H](COC)C5)cc(C)c34)C2)ccc(C(=O)NS(=O)(=O)N2CCCC2)c1F [Example 223, (R)-3-ethoxy-2-fluoro-4-(8-(3-(methoxymethyl)-4-methylpiperazin-1-yl)-7,10-dimethyl-5-oxo-1,3,4,5-tetrahydro-2H-chromeno[3,4-c]pyridine-3-carbonyl)-N-(pyrrolidin-1-ylsulfonyl)benzamide] | 1 to 10 | 1 to 10 | F (<3) | 1 to 10
COC[C@H]1CN(c2cc(C)c3c4c(c(=O)oc3c2C)CN(C(=O)c2cc(OC)c(C(=O)NS(=O)(=O)N3CCCC3)cc2F)CC4)CCN1C [Example 224, (R)-5-fluoro-2-methoxy-4-(8-(3-(methoxymethyl)-4-methylpiperazin-1-yl)-7,10-dimethyl-5-oxo-1,3,4,5-tetrahydro-2H-chromeno[3,4-c]pyridine-3-carbonyl)-N-(pyrrolidin-1-ylsulfonyl)benzamide] | 30 to 100 | 1 to 10 | J (>30) | 100 to 1000
